Test system: endophthalmitis
Test: Combination therapy treatment of severe endophthalmitis in a human subject (case report)
Format: in vivo
Settings: initial regimen without cyclosporin A: intravitreal Vancomycin and Ceftazidime, then Ceftazidime, Vancomycin and Prednisolone eye drops every two hours; over the next two days
Procedure: A uniocular subject was diagnosed with severe endophthalmitis in their only functioning eye. […] The subject was treated with an aggressive treatment regimen of antibiotics (Intra Vitreal injection of Vancomycin and Ceftazidime) followed by Ceftazidime eye drops. Vancomycin eye drops and steroid Prednisolone eye drops every two hours.
Cyclosporin A (sold as […]® from Allergan, Inc.) was added to the treatment regimen and was administered prior to administering the antibiotic and steroid eye drops.
The Ceftriaxone was added to the regimen to increase the aggressiveness of the therapy with the goal of preventing or eliminating any traces of infection in the retina, which can result in irreversible blindness.

| Compound | improvement of the subject |
| --- | --- |
| CC(C)(O/N=C(\C(=O)N[C@@H]1C(=O)N2C(C(=O)[O-])=C(C[n+]3ccccc3)CS[C@H]12)c1csc(N)n1)C(=O)O [Ceftazidime] | no improvement |
| C[C@]12C=CC(=O)C=C1CC[C@@H]1[C@@H]2[C@@H](O)C[C@@]2(C)[C@H]1CC[C@]2(O)C(=O)CO [Prednisolone] | no improvement |
| CN[C@H](CC(C)C)C(=O)N[C@H]1C(=O)N[C@@H](CC(N)=O)C(=O)N[C@H]2C(=O)N[C@H]3C(=O)N[C@H](C(=O)N[C@H](C(=O)O)c4cc(O)cc(O)c4-c4cc3ccc4O)[C@H](O)c3ccc(c(Cl)c3)Oc3cc2cc(c3O[C@@H]2O[C@H](CO)[C@@H](O)[C@H](O)[C@H]2O[C@H]2C[C@](C)(N)[C@H](O)[C@H](C)O2)Oc2ccc(cc2Cl)[C@H]1O [Vancomycin] | no improvement |
